According to patent US20210330611A1, “THERAPY FOR NEUROLOGICAL DISEASES/DISORDERS” (priority 2020, published 2021):
Several values for one entry are separate records, joined by “and”; a condition that tells them apart may be missing. Identical values can stand only once. Like-named read-outs stand apart in the source and are kept apart here.

Assays:
[1] = system: LPS-induced microglia activation; assay: Image-based assay of LPS-induced microglia activation (HTS and dose response); type: cell-based, rat; settings: for LPS % inhibition / inhibition at 10 µM: primary microglia HTS, LPS stimulation; for inhibition at 10 µM: 48 h, read-out: LPS % inhibition
primary rat microglia [2] = assay: Cell toxicity (dead cells, size <150 μm2) in coated fibrin (cFib) assay; settings: primary microglia HTS, fibrin stimulation;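 note: share of dead cells sized under 150 µm2 at 10 µM in fibrin-stimulated microglia HTS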
[3] = system: fibrin-induced microglia activation; assay: Image-based assay of fibrin-induced microglia activation (HTS and dose response); type: cell-based, rat; settings: for Fibrin % inhibition / inhibition at 10 µM: primary microglia HTS, fibrin stimulation; for inhibition at 10 µM: read-out: Fibrin % inhibition
primary rat microglia [4] = assay: Cell toxicity (dead cells, size <150 μm2) in LPS assay; settings: primary microglia HTS, LPS stimulation
[5] = system: fibrin- and LPS-induced microglia activation; assay: cells; type: cell-based, rat
[6] = activation = cell size >800 μm2
[7] = quadrant by fibrin and LPS inhibition in HTS of 1907 compounds
[8] = Rattus norvegicus, Microglia, activation = cell size >800 μm2
[9] = Rattus norvegicus, Microglia, increased cell size (>800 μm^2) as marker of activation
[10] = decreased size (<150 μm^2) as marker of toxicity

SMILES	LPS % inhibition [1, 6] [%]	Fibrin % cell toxicity (primary rat microglia [2]; toxicity = cell size <150 μm2) [%]	Fibrin % inhibition [3, 6] [%]	LPS % cell toxicity (primary rat microglia [4]; toxicity = cell size <150 μm2) [%]	Quadrant (FIG. 5b) [5, 7]	inhibition at 10 µM [1, 8] [%]	inhibition at 10 µM [3, 8] [%]	inhibition at 10 µM [1, 9] [%]	IC50 ([1]; Rattus norvegicus, Microglia, Table 7, read-out: LPS_IC50) [nM]	Fibrin % cell toxicity (primary rat microglia [2]; [10])	IC50 ([3]; Rattus norvegicus, Microglia, Table 7, read-out: fib_IC50) [nM]	inhibition at 10 µM [3, 9] [%]	LPS % cell toxicity (primary rat microglia [4]; [10]) [%]	Quadrant (FIG. 5b) ([5]; Table 2, screen at 10 μM)
Nc1nc(=O)[nH]cc1F [Flucytosine, 5-fluorocytosine]	17	1	13	1	Q4									
Nc1nc(F)nc2c1ncn2[C@@H]1O[C@H](COP(=O)(O)O)[C@@H](O)[C@@H]1O [Fludarabine Phosphate]		1		0	Q4	11	1							
O=C(O)c1ccccc1Nc1cccc(C(F)(F)F)c1 [Flufenamic Acid]		0		0	Q4	-1	-20							
CC1CCc2cc(F)cc3c(=O)c(C(=O)O)cn1c23 (centres unmarked) [Flumequine]		0		1	Q4	16	-1							
Cc1c(Nc2ncccc2C(=O)O)cccc1C(F)(F)F [Flunixin Meglumine]		1		0	Q4	8	-6							
O=C1OC2(c3ccc(O)cc3Oc3cc(O)ccc32)c2ccccc21 [Fluorescein]		0		0	Q4	4	-3							
CC1(C)O[C@@H]2C[C@H]3[C@@H]4C[C@H](F)C5=CC(=O)CC[C@]5(C)[C@H]4[C@@H](O)C[C@]3(C)[C@]2(C(=O)CO)O1 [Flurandrenolide, reference compound]					Q2			98	2	6% and 5%	2	110	5	Q2
CC(C(=O)O)c1ccc(-c2ccccc2)c(F)c1 (centres unmarked) [Flurbiprofen]		0		0	Q4	33	17							
NP(N)(=O)NC(=O)c1ccc(F)cc1 [Flurofamide]		0		0	Q4	-12	3							
FC(F)(F)COCC(F)(F)F [Flurothyl]	28	1	0	0	Q4									
C=COCC(F)(F)F [Fluroxene]		0		0	Q4	11	-19							
C[C@]12CCC(=O)C(O)=C1CC[C@@H]1[C@@H]2CC[C@]2(C)C(=O)CC[C@@H]12 [Formestane]		1		0	Q4	10	-6							
O=C(O)P(=O)(O)O [Foscarnet]		1		0	Q4	10	5							
O=C(O)c1ccccc1OP(=O)(O)O [Fosfosal]		0		1	Q4	16	-29							
CCC(=O)O[C@@H](O[P@](=O)(CCCCc1ccccc1)CC(=O)N1C[C@H](C2CCCCC2)C[C@H]1C(=O)O)C(C)C [Fosinopril]		1		0	Q4	-1	-52							
C[C@@H]1O[C@@H]1P(=O)(O)O [Fosphomycin]	12	1	4	0	Q4									
O=C1OC(CN2CCOCC2)CN1/N=C/c1ccc([N+](=O)[O-])o1 (centres unmarked) [Furaltadone]		1		0	Q4	0	-60							
Oc1noc2c1CCNC2 [Gaboxadol]		0		0	Q4	3	-43							
CC(O)CN1CCN(CC(=O)[O-])CCN(CC(=O)[O-])CCN(CC(=O)[O-])CC1.[Gd+3] (centres unmarked) [Gadoteridol]	15	1	−18	0	Q4									
CC[N+](CC)(CC)CCOc1cccc(OCC[N+](CC)(CC)CC)c1OCC[N+](CC)(CC)CC [Gallamine Triethiodide]		1		1	Q4	24	-11							
O=C(O)c1cc(O)c(O)c(O)c1 [Gallic Acid]		0		0	Q4	10	-32							
O=C(O)CCCc1ccccc1 [Gamma-Phenyl-Butyric Acid]		0		0	Q4	9	-36							
CC(=O)[C@H]1CC[C@H]2[C@@H]3CC[C@H]4C[C@](C)(O)CC[C@]4(C)[C@H]3CC[C@]12C [Ganaxolone]		1		0	Q4	12	-38							
Nc1nc(O)c2ncn(COC(CO)CO)c2n1 [Ganciclovir]		0		0	Q4	13	-2							
COc1c(N2CCNC(C)C2)c(F)cc2c(=O)c(C(=O)O)cn(C3CC3)c12 (centres unmarked) [Gatifloxacin]		1		0	Q4	19	-19							
Nc1ccn([C@@H]2O[C@H](CO)[C@@H](O)C2(F)F)c(=O)n1 [Gemcitabine]		1		0	Q4	0	-31							
Cc1ccc(C)c(OCCCC(C)(C)C(=O)O)c1 [Gemfibrozil]		0		0	Q4	10	-47							
CO/N=C1\CN(c2nc3c(cc2F)c(=O)c(C(=O)O)cn3C2CC2)CC1CN (centres unmarked) [Gemifloxacin]		0		0	Q4	6	-34							
